Assay results published in patent US20110224256A1, “T[…] THE TREATMENT OF PSYCHIATRIC DISORDERS” (priority 2008, published 2011).
Where “and” joins values, the source holds several entries; their conditions need not be identical. Identical values can stand only once. Counter-ions that a name gives are not always drawn.

Tests used:
D2 dopamine receptor = D2 dopamine receptor binding in the striatum by quantitative autoradiography after juvenile methylphenidate; assay type: in vivo, rats; details: 40 days of age, postnatal day 20-35
Protocol: FIG. 7. In this study, rats were administered a dosage of 2 mg/kg methylphenidate either by osmotic minipump (continuous release) or twice daily by interperitoneal injection (intermittent) between the ages of postnatal day 20-35. D2 dopamine receptor binding was assessed in the striatum at 40 days of age using quantitative autoradiography (see Andersen et al., Synapse 37:167-169 (2000)).

D3 receptor mRNA = D3 receptor mRNA by Q-PCR after juvenile drug exposure; assay type: in vivo, Sprague-Dawley rats; details: for reduction in D3 receptor mRNA: MPH 2 mg/kg i.p. twice daily P20-P35, HCl
[1] = tested on: dopamine receptors D1, D2 long, D4 and D5 mRNA; experiment: D1, D2 long, D4 and D5 receptor mRNA by Q-PCR after juvenile MPH exposure; assay type: in vivo, Sprague-Dawley rats; details: MPFCx, 25 days after cessation of MPH, P>0.1
Sprague-Dawley male rats = experiment: rCBV by MRI with MION contrast after MPH challenge in adulthood; assay type: in vivo
Protocol: MRI was conducted in two groups of animals (MPH-treated or VEH treated; n=7) at approximately 60 days old. Functional changes in rCBV were determined by drug-induced alterations following paramagnetic contrast agent […] iron oxide nanocolloid (MION) in anesthetized treated subjects (Chen et al., 2001). All experiments were performed at 2 T or 4.7 T on a GE Omega CSI instrument (GE, Fremont, Calif., USA) using a home-built surface coil for transmit-receive and immobilization of the head using a rigid plastic head holder. All VEH/MPH subjects were matched for scanner strength to control for any possible differences due to magnet strength (Mandeville et al., Magn. Reson. Med., 52:1272-1281 (2004)). […]
According to standard methods, 20 baseline images were collected, followed by a 10 mg/kg injection of MION (an iron particle-based contrast agent that produces long-lasting intravascular contrast for T2* contrast measures) and an additional 20 baseline images. […] Images were measured serially with a temporal resolution of 2 min.
All functional images within each condition were registered onto the same standard brain template to facilitate comparisons between the experimental groups. Registration parameters were determined for each functional scan using a single full-brain image set that is the average of all baseline time points prior to drug injection. […]

BDNF = BDNF mRNA and protein in MPH-exposed subjects after cocaine challenge; assay type: in vivo, rats; details: in response to cocaine challenge, preliminary, data not shown
Excerpt: Changes in D3 expression and function may signal a sensitive period of development, when drug imprinting is likely to occur (Andersen, Trends Pharmacol. Sci., 26:237-243 (2005)). Drug-induced perturbations before the completion of dopamine receptor development may prevent these developmental rearrangements.

[2] = 0.5 mg/kg i.p., within 5 min, rats; cited from earlier work

## COC(=O)C(c1ccccc1)C1CCCCN1 (stereo not drawn) [MPH, d,l-Methylphenidate HCl]
D2 dopamine receptor; 2 mg/kg by osmotic minipump (continuous release)
  D2 receptor density: but not when administered by continuous release
D2 dopamine receptor; 2 mg/kg twice daily by intraperitoneal injection (intermittent)
  D2 receptor density: reduced significantly
D3 receptor mRNA; MPFCx, assessed at P40
  reduction in D3 receptor mRNA: 28.9±8.3% and 28.9%
D3 receptor mRNA; MPFCx, corrected by GAPDH, juvenile MPH 2 mg/kg or MPH + 0.05 mg/kg Naf, F3,20=8.76, P<0.001
  D3 mRNA levels in the place-conditioned animals: significantly changed
D3 receptor mRNA; MPFCx, relative to VEH controls, 25 days post-exposure (P60)
  reduction in D3 receptor mRNA: 23.8±6.7% and 23.8%
D3 receptor mRNA; accumbens or striatum, MPH-exposed, P>0.5
  D3 mRNA change: did not change
[1]
  changes in other dopamine receptor subtype mRNA (D1, D2 long, D4, D5): No other significant changes
Sprague-Dawley male rats; MPFCx, juvenile MPH 2 mg/kg twice daily P20-P35 vs VEH-treated, 2 mg/kg i.v. MPH challenge
  rCBV change after MPH challenge in adulthood: significantly increased
Sprague-Dawley male rats; dorsolateral PFCx or caudate putamen, juvenile MPH exposure
  enduring effects of juvenile exposure on rCBV: no significant enduring effects
BDNF
  BDNF mRNA: reduced
  BDNF protein levels: modestly, but significantly, lower
[2]
  plasma levels: 36 ng/mL
